# Source: patent US9163008B2, “Pyrimidines as sodium channel blockers” (Purdue Pharma, L.P., priority 2011, dated 2015)
# Read-outs that look alike come from different tables or passages of the source.
# Target: human Nav1.7 (Homo sapiens (Human), UniProt Q15858)
# Assay: FLIPR sodium dye assay (CoroNa Green) with KCl and test article pre-incubation
# Type: cell-based
# [1] = read-out: Nav1.7 Activity FLIPR assay IC50
# [2] = recombinant human Nav1.7 in HEK293, veratridine and scorpion venom agonists, read-out: Nav1.7 Activity FLIPR assay IC50
# Sequence of human Nav1.7 (Q15858 other isoform, or with tags, fused parts or gaps): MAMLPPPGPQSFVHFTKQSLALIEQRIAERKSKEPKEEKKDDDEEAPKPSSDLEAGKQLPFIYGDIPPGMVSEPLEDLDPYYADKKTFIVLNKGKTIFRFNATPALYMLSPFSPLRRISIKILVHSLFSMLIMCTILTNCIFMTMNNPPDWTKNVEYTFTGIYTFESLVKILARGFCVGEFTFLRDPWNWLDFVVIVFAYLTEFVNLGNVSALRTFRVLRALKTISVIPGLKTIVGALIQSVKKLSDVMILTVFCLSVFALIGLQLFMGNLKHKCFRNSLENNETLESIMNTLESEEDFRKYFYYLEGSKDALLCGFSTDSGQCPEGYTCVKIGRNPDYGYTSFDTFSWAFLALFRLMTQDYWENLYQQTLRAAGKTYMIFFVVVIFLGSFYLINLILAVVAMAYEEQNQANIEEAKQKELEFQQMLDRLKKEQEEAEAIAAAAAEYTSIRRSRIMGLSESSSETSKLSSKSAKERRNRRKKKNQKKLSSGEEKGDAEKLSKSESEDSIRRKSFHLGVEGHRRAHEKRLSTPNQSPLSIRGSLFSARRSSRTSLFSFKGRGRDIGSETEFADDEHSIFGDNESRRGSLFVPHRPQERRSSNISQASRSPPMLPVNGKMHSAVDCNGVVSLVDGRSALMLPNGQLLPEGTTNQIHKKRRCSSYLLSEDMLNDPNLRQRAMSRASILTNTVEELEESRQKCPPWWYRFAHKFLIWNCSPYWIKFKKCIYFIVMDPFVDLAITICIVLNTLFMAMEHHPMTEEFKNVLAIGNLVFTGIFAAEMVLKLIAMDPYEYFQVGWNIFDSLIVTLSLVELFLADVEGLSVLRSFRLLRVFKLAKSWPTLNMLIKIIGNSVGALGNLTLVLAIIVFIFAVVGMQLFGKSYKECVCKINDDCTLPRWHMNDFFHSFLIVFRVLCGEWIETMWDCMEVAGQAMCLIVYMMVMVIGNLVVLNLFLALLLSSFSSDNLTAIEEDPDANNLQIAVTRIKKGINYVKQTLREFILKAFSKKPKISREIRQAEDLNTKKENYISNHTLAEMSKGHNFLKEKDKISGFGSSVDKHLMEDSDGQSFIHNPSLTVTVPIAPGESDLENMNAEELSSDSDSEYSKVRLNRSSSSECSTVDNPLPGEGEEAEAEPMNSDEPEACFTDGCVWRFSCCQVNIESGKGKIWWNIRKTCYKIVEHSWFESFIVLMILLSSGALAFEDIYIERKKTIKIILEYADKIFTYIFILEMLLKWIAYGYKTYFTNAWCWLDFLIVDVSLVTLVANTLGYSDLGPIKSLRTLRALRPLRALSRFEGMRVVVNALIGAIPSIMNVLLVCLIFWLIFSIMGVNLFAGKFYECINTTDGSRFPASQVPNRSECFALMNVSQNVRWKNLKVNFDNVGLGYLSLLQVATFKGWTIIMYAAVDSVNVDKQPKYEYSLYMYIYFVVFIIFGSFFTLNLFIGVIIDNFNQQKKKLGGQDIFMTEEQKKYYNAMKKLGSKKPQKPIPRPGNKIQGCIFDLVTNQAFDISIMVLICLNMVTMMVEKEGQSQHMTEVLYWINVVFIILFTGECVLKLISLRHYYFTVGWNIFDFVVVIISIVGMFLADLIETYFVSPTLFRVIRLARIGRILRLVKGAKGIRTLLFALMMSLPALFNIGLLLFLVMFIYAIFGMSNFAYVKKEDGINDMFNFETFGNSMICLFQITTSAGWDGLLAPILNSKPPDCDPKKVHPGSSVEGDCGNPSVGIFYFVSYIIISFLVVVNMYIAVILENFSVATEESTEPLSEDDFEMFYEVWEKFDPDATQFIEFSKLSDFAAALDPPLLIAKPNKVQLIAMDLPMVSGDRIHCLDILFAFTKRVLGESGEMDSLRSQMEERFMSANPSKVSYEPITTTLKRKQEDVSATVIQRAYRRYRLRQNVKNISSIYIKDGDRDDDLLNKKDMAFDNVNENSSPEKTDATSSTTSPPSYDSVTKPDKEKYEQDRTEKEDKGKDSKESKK
Structure (SMILES),IC50 [1] [µM],IC50 [2] [µM],other results
"NC(=O)c1cc(NC2(C(N)=O)CC2)nc(-c2ccc(Oc3ccc(F)cc3)cc2)n1 [Cpd No. 8, 6-((1-carbamoylcyclopropyl)amino)-2-(4-(4-fluorophenoxy)phenyl)pyrimidine-4-carboxamide]",0.42,–,–
"CCOC(=O)[C@@H]1Cc2ccccc2N1c1cc(C(N)=O)nc(-c2ccc(Oc3ccc(F)cc3)cc2)n1 [Cpd No. 16, (S)-ethyl 1-(6-carbamoyl-2-(4-(4-fluorophenoxy)phenyl)pyrimidin-4-yl) indoline-2-carboxylate]",> 20,–,–
"NC(=O)CCNc1cc(C(N)=O)nc(-c2ccc(Oc3ccc(F)cc3)cc2)n1 [Cpd No. 19, 6-((3-amino-3-oxopropyl)amino)-2-(4-(4-fluorophenoxy)phenyl)pyrimidine-4-carboxamide]",–,> 20,–
"C[C@@H](C(N)=O)N(C)c1cc(C(N)=O)nc(-c2ccc(Oc3ccc(F)cc3)cc2)n1 [Cpd No. 20, (S)-6-((1-amino-1-oxopropan-2-yl)(methyl)amino)-2-(4-(4-fluorophenoxy)phenyl)pyrimidine-4-carboxamide]",0.22,–,–
"CC(Nc1cc(C(N)=O)nc(-c2ccc(Oc3ccc(F)cc3)cc2)n1)C(N)=O (stereo not drawn) [Cpd No. 22, 6-((1-amino-1-oxopropan-2-yl)amino)-2-(4-(4-fluorophenoxy)phenyl)pyrimidine-4-carboxamide]",0.55,–,–
"CC(CC(N)=O)Nc1cc(C(N)=O)nc(-c2ccc(Oc3ccc(F)cc3)cc2)n1 (stereo not drawn) [Cpd No. 23, 6-((4-amino-4-oxobutan-2-yl)amino)-2-(4-(4-fluorophenoxy)phenyl)pyrimidine-4-carboxamide]",0.3,–,–
"NC(=O)c1cc(N2CCCC(C(N)=O)C2)nc(-c2ccc(Oc3ccc(F)cc3)cc2)n1 (stereo not drawn) [Cpd No. 24, 6-(3-carbamoylpiperidin-1-yl)-2-(4-(4-fluorophenoxy)phenyl)pyrimidine-4-carboxamide]",–,–,IC50: 10 to 20 µM
"C[C@H](Nc1cc(C(N)=O)nc(-c2ccc(Oc3ccc(F)cc3)cc2)n1)C(=O)O [Cpd No. 28, (S)-2-((6-carbamoyl-2-(4-(4-fluorophenoxy)phenyl)pyrimidin-4-yl)amino)propanoic acid]",–,10 to 20,–
"O=C(O)c1cc(N2CCC[C@H]2C(=O)O)nc(-c2ccc(Oc3ccc(F)cc3)cc2)n1 [Cpd No. 29, (S)-6-(2-carboxypyrrolidin-1-yl)-2-(4-(4-fluorophenoxy)phenyl)pyrimidine-4-carboxylic acid]",–,> 20,–
"NC(=O)c1cc(N2CCC[C@H]2C(=O)O)nc(-c2ccc(Oc3ccc(F)cc3)cc2)n1 [Cpd No. 30, (S)-1-(6-carbamoyl-2-(4-(4-fluorophenoxy)phenyl)pyrimidin-4-yl)pyrrolidine-2-carboxylic acid]",–,> 20,–
"NC(=O)c1cc(N2c3ccccc3C[C@H]2C(=O)O)nc(-c2ccc(Oc3ccc(F)cc3)cc2)n1 [Cpd No. 31, (S)-1-(6-carbamoyl-2-(4-(4-fluorophenoxy)phenyl)pyrimidin-4-yl)indoline-2-carboxylic acid]",–,> 20,–
"COC(=O)[C@H](C)Nc1cc(C(=O)O)nc(-c2ccc(Oc3ccc(F)cc3)cc2)n1 [Cpd No. 33, (S)-2-(4-(4-fluorophenoxy)phenyl)-6-((1-methoxy-1-oxopropan-2-yl)amino)pyrimidine-4-carboxylic acid]",0.97,–,–
"C[C@H](Nc1cc(C(N)=O)nc(-c2ccc(Oc3ccc(C#N)cn3)cc2)n1)C(N)=O [Cpd No. 37, (S)-6-((1-amino-1-oxopropan-2-yl)amino)-2-(4-((5-cyanopyridin-2-yl)oxy)phenyl)pyrimidine-4-carboxamide]",–,10 to 20,–
"NC(=O)c1cc(NC[C@H](O)CO)nc(-c2ccc(Oc3ccc(F)cc3)cc2)n1 [Cpd No. 46, (S)-6-((2,3-dihydroxypropyl)amino)-2-(4-(4-fluorophenoxy)phenyl)pyrimidine-4-carboxamide]",–,> 20,–
"NC(=O)c1cc(N2CCNCC2CO)nc(-c2ccc(Oc3ccc(F)cc3)cc2)n1 (stereo not drawn) [Cpd No. 48, 2-(4-(4-fluorophenoxy)phenyl)-6-(2-(hydroxymethyl)piperazin-1-yl)pyrimidine-4-carboxamide]",0.17,–,–
"NC(=O)c1cc(NC[C@H](O)C(N)=O)nc(-c2ccc(Oc3ccc(F)cc3)cc2)n1 [Cpd No. 50, (S)-6-((3-amino-2-hydroxy-3-oxopropyl)amino)-2-(4-(4-fluorophenoxy)phenyl)pyrimidine-4-carboxamide]",–,> 20,–
"NC(=O)c1cc(NC[C@H](O)C(=O)O)nc(-c2ccc(Oc3ccc(F)cc3)cc2)n1 [Cpd No. 51, (S)-3-((6-carbamoyl-2-(4-(4-fluorophenoxy)phenyl)pyrimidin-4-yl)amino)-2-hydroxypropanoic acid]",–,> 20,–
"C[C@H](Nc1cc(C(N)=O)nc(-c2ccc(O)cc2)n1)C(N)=O [Cpd No. 65, 6-((S)-1-Carbamoyl-ethylamino)-2-(4-hydroxy-phenyl)-pyrimidine-4-carboxylic acid amide]",> 20,–,–
"C[C@H](Nc1cc(C(N)=O)nc(-c2ccc(Oc3ccc(C#N)cc3)cc2)n1)C(N)=O [Cpd No. 66, 6-((S)-1-Carbamoyl-ethylamino)-2-[4-(4-cyano-phenoxy)-phenyl]-pyrimidine-4-carboxylic acid amide]",–,0.41,–
"C[C@H](Nc1cc(C(N)=O)nc(Oc2ccc(Cl)cc2-c2ccnc(N)c2)n1)C(N)=O [Cpd No. 67, (S)-6-((1-amino-1-oxopropan-2-yl)amino)-2-(2-(2-aminopyridin-4-yl)-4-chlorophenoxy)pyrimidine-4-carboxamide]",–,> 20,–
"C[C@H](Nc1cc(C(N)=O)nc(-c2ccnc(Oc3ccc(F)cc3)c2)n1)C(N)=O [Cpd No. 68, (S)-6-((1-amino-1-oxopropan-2-yl)amino)-2-(2-(4-fluorophenoxy)pyridin-4-yl)pyrimidine-4-carboxamide]",–,> 20,–
"C[C@H](Nc1cc(C(N)=O)nc(N2CCN(C(c3ccc(F)cc3)c3ccc(F)cc3)CC2)n1)C(N)=O [Cpd No. 71, (S)-6-((1-amino-1-oxopropan-2-yl)amino)-2-(4-(bis(4-fluorophenyl)methyl)piperazin-1-yl)pyrimidine-4-carboxamide]",–,> 20,–
"C[C@H](Nc1cc(C(N)=O)nc(Oc2ccc(C(F)(F)F)cc2-c2ccnnc2)n1)C(N)=O [Cpd No. 72, (S)-6-((1-amino-1-oxopropan-2-yl)amino)-2-(2-(pyridazin-4-yl)-4-(trifluoromethyl)phenoxy)pyrimidine-4-carboxamide]",1.42,–,–
"NC(=O)c1cc(N2CCC[C@H]2C(N)=O)nc(-c2ccc(Oc3ccc(C(F)(F)F)cc3)cc2)n1 [Cpd No. 91, (S)-6-(2-carbamoylpyrrolidin-1-yl)-2-(4-(4-(trifluoromethyl)phenoxy)phenyl)pyrimidine-4-carboxamide]",0.2,–,–
NC(=O)c1cc(N2c3ccccc3C[C@H]2C(N)=O)nc(-c2ccc(Oc3ccc(F)cc3)cc2)n1 [Example 36],–,> 20,–
"C[C@H](Nc1cc(C(N)=O)nc(N2CCC3(CC2)Cc2ccccc2C3)n1)C(N)=O [compound 73, (S)-6-((1-amino-1-oxopropan-2-yl)amino)-2-(1,3-dihydrospiro[indene-2,4′-piperidin]-1′-yl)pyrimidine-4-carboxamide]",1.8,–,–
"NC(=O)c1cc(N2CCC[C@H]2C(N)=O)nc(-c2ccc(Oc3ccc(Cl)cc3F)cc2)n1 [compound 78, (S)-6-(2-carbamoylpyrrolidin-1-yl)-2-(4-(4-chloro-2-fluorophenoxy)phenyl)pyrimidine-4-carboxamide]",0.12,–,–
